Test results published in patent US20230416750A1, “CATALYTIC SEQUENCE BASED METHODS OF TREATING OR PREVENTING BACTERIAL INFECTIONS” (priority 2020, published 2023).
pIC50: −log10 of the molar value. {3CholTEG} = cholesteryl-TEG conjugate

Assays:
[1] = system: Klebsiella pneumoniae ATCC BAA-1705; assay: Growth assays / MIC / viability (OD600, CFU) with meropenem; format: cell-based
Protocol: Cultures were incubated at 37° C. with continuous shaking and the optical density OD600 was recorded every 30 minutes using Ultrospec 10 (biochrom). Viability was tested by serial dilutions (1:100) of the bacterial suspensions and spots were plated on LB plates. The plates were incubated at 37° C. and on the next day CFU was counted to determine culture viability.

[2] = system: Klebsiella pneumoniae (ATCC BAA-1705); assay: KP infected thigh muscle model in neutropenic mice; format: in vivo; settings: SC TID, 240 mg/kg meropenem alone or with KPC-337 16, 24 or 32 mg/kg
Protocol: Neutropenia induction: The experiments were performed on female ICR mice age 9-10 weeks. At day (−4) neutropenia induction was performed by cyclophosphamide intraperitoneal (IP) injection at 150 mg/kg and a volume of 10 mL/kg. At day (−1) neutropenia maintenance was performed by cyclophosphamide IP injection at 100 mg/kg and a volume of 10 mL/kg.
Bacterial suspension preparation: At day (−4) KP (ATCC® BAA-1705™) bacteria was streaked out from −80° C. glycerol stock onto LB medium and incubated at 37° C. for 20 hours and then stored at 2-8° C. At day (−1) single colonies of the KP (ATCC® BAA-1705™ bacteria) were picked by using an inoculation loop (Greiner, 731175) and suspended in 20 mL Tryptic Soy broth (TSB) (Hylabs, BIO-MO11) in Erlenmeyer and incubated at 37° C. overnight (=starter) with shaking at 180 rpm. In the morning of dosing day, bacterial starter was diluted in fresh TSB (total of 20 mL) and incubated for about 1-3 hours at 37° C. […] Bacterial suspension concentration was determined by McFarland (Densicheck plus, Biomerieux) and diluted in sterile PBS to a concentration of 2.2×10^7 CFU/mL. […]
Bacterial burden determination: Homogenate samples dilutions were plated on LB agar plates at various dilutions to determine the colony forming units (CFUs). Plates were incubated overnight (at 37° C.), and bacterial burden was calculated and expressed as CFUs/gram of tissue.

bla-KPC RNA transcripts = assay: Bla-KPC quantification from bacterial cells (qPCR); format: cell-based; settings: DNAzyme 1.25 μM with sub-toxic meropenem (128 μg/ml), 20 minutes; vs untreated control
Protocol: Total RNA was extracted from each sample using RNeasy Mini Kit (Qiagen), according to the manufacturer's instructions. The concentration, purity, and integrity of total RNA was determined using NanoDrop and gel electrophoresis. cDNA synthesis was performed using iScript™ cDNA synthesis (Bio-Rad) according to the manufacturer's instructions. Equal amounts of total RNA (1000 ng/20 μL) were reverse-transcribed in all samples. Reactions were incubated in a CFX96 Touch Real-Time PCR detection system (Bio-Rad) by the following program: 25° C. for 5 minutes, 46° C. for 20 minutes, 95° C. for 60 seconds. Bla-KPC expression was determined by qPCR, with primers designed using NCBI primer-BLAST. qPCR analysis was performed using the iTaq Universal SYBR Green Supermix (Bio-Rad) according to the manufacturer's instructions, in a CFX96 system by the following program: 95° C. for 3 minutes, 39 cycles of 95° C. for 10 seconds and 55° C. for 30 seconds. Melt curves were generated for each sample by heating PCR amplicons from 65° C. to 95° C. with a gradual increase of 0.5° C./0.5 s.

Klebsiella pneumoniae = assay: Lung ex-vivo infection model (mouse lung punches, CFU); format: cell-based; settings: sub-toxic meropenem alone or with DNAzyme/scramble; 24 hours
Protocol: Lungs were harvested from 5-10 mice (C57BL/6, 6-8 weeks old) and placed in petri dishes containing DMEM 5% FCS. The tissue was divided into circular pieces 3 mm in diameter with a biopsy punch and transferred to poly-propanol tubes with 3 ml DMEM. DMEM was applied with meropenem and DNAzymes, as indicated. To each respective tube 10 μl of mid-logarithmic Klebsiella pneumoniae culture was added—with three technical repeats for each condition. The plates were incubated at 37° C. for approximately 1 days (24 hours), washed twice with PBS.
For CFU of bacteria infecting ex vivo tissue culture: individual punches or their growth media were collected, Punches were resuspended in 1 ml PBS (Biological Industries), and free-living bacteria were pelleted and resuspended in PBS at the same volume. Samples were thoroughly vortexed (5 min). The samples were then mildly manually crushed using 1.5 ml pestle. In all cases, to determine the number of viable cells, samples were serially diluted in PBS, plated on LB plates, and colonies were counted after incubation at 37° C. overnight.

HT-29 cells = format: cell-based; settings: HT-29 human colorectal adenocarcinoma cells, 72 hours; read-out: IC50 of toxicity
Protocol: HT-29 cells (ATCC) were seeded in 24-well plates at 200,000 cells per well. DNAzyme were added to the medium at different concentrations. After 72 hours, PrestoBlue reagent (A13262, Life Technologies Ltd.) was added as a cell viability indicator.

β-lactamase = settings: DNAzyme 1.25 M (so in the source) with 128 μg/ml meropenem, 1 h; vs untreated control
Protocol: Bacterial strains were streaked from frozen LB+glycerol stocks onto LB agar plates and incubate for 24 hours at 37° C. Single colonies were grown overnight at 37° C. in 3 ml of LB. Cultures were diluted 1:1000 in 2 ml LB supplemented with 128 μg/ml meropenem and DNAzyme were added to a final concentration of 1.25 M. Cultures were incubated at 37° C. with continuous shaking for 1 h. Measurement of the β-lactamase activity assay was done using colorimetric kit (abcam), according to the manufacture's protocol.

[3] = system: Klebsiella pneumoniae strain ATCC BAA-1705; assay: Galleria mellonella virulence assay (larvae viability); format: in vivo; settings: infected G. mellonella larvae
Protocol: Larvae virulence experiments were performed in the facilities of Pharmaseed LTD (Ness Ziona, Israel). G. larvae were obtained from BioSystems Technologies (Exeter, UK) and stored in the shipment boxes at 15° C. for two weeks or at room temperature for immediate use with no requirement of food. Larvae were randomly selected from a large batch for an approximate weight of 250±25 mg. Larvae were separated from sawdust and selected for plumped, lighter colored worms. Darker colored, dehydrated worms, were discarded. Each treatment group (20 larvae per group) contained 10 larvae placed in a 10 cm empty Petri dish (2 dishes per treatment group), on a filter paper.
Bacterial inoculums were prepared from cultures grown overnight at 37° C. in TSB medium (HyLabs, Israel) and washed with sterile 1×PBS. Bacterial suspension concentration was determined by McFarland (Densicheck plus, Biomerieux) and diluted in sterile PBS to receive 10^9 CFU/mL. Serial dilutions of the bacterial suspensions were made and spots were plated on blood agar plates. The plates were incubated at 37° C. and on the next day CFU was counted in order to determine final injected bacterial concentrations.
Each larva was initially injected with 5×10^5 cells into the proleg. A second injection to the proleg was done with meropenem (10 μg/g), meropenem+DNAzyme (8.52 μg/g) or sterile PBS. […]

GCCTGTTGggctagctacaacgaCAGATATTT/3CholTEG/ (GCCTGTTGGGCTAGCTACAACGACAGATATTT; 3' {3CholTEG}, sugars by position and backbone not given here) [KPC-337, DNAzyme targeting bla carbapenemase of Klebsiella pneumoniae]
growth inhibitory effect (optical density) ([1]; combination of subtoxic meropenem concentration and DNAzyme): complete arrest of growth | effect on viability of the bacterial cells (cell counts over time) ([1]; combined treatment of meropenem and DNAzyme): bactericidal | reduction of MIC levels ([1]; meropenem MIC with vs without DNAzyme): two fold | MIC of meropenem ([1]; with addition of DNAzyme KPC-337): 128 µg/mL | reduction of bacterial load in the infection site [2]: 2-3 log fold | reduction of transcript levels of bla-KPC (bla-KPC RNA transcripts): two fold | reduction of capacity of the bacteria to infect and colonize lung tissue (bacterial load in the tissue) (Klebsiella pneumoniae): 1.5-2 fold | reduction of the free-living cells that remained in the growth media (Klebsiella pneumoniae): 1-1.5 fold change | pIC50 (HT-29 cells): 4.70 | reduction of β-lactamase activity (β-lactamase): 70% | larvae viability ([3]; sub-toxic meropenem 10 μg/g with DNAzyme (8.52 μg/g)): 100%

C[C@@H](O)[C@H]1C(=O)N2C(C(=O)O)=C(S[C@@H]3CN[C@H](C(=O)N(C)C)C3)[C@H](C)[C@H]12 [meropenem, reference compound]
MIC ([1]; Klebsiella pneumoniae, ATCCBAA1705, without DNAzyme): 256 µg/mL | reduction of bacterial load in the infection site [2]: slightly reduced the bacterial load | reduction of capacity of the bacteria to infect and colonize lung tissue (bacterial load in the tissue) (Klebsiella pneumoniae): did not reduced the bacterial load | reduction of the free-living cells that remained in the growth media (Klebsiella pneumoniae): did not reduced the bacterial load | reduction of the viability of the larvae ([3]; sub-toxic meropenem 10 μg/g alone or with scramble): 40%
